The record followed here is patent US9376429B2, “Sodium channel blockers, preparation method thereof and use thereof” (Daewoong Pharmaceutical Co., Ltd., priority 2012, dated 2016).

For this experiment, the target named is T1, sodium ion channel (Nav1.7) (Homo sapiens, UniProt Q15858).
T1 construct: host or cells: HEK293
Put plainly: Blocking effect against sodium ion channel (Nav1.7), IonFlux16 auto patch clamp, hNav1.7 HEK293 cells. It counts as cell-based. The settings on record: peak current after 50 seconds treatment, eight concentrations. In short, it runs like this:
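HEK293 cells stably expressing human Nav1.7 were recorded by IonFlux16 automated patch clamp in extracellular solution (pH 7.45, final DMSO ≤0.3%). Peak current was measured after 50 s exposure to each of eight compound concentrations and expressed as percent inhibition relative to pre-compound current.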

Structures are written as SMILES.

T1 sequence (Q15858 whole entry): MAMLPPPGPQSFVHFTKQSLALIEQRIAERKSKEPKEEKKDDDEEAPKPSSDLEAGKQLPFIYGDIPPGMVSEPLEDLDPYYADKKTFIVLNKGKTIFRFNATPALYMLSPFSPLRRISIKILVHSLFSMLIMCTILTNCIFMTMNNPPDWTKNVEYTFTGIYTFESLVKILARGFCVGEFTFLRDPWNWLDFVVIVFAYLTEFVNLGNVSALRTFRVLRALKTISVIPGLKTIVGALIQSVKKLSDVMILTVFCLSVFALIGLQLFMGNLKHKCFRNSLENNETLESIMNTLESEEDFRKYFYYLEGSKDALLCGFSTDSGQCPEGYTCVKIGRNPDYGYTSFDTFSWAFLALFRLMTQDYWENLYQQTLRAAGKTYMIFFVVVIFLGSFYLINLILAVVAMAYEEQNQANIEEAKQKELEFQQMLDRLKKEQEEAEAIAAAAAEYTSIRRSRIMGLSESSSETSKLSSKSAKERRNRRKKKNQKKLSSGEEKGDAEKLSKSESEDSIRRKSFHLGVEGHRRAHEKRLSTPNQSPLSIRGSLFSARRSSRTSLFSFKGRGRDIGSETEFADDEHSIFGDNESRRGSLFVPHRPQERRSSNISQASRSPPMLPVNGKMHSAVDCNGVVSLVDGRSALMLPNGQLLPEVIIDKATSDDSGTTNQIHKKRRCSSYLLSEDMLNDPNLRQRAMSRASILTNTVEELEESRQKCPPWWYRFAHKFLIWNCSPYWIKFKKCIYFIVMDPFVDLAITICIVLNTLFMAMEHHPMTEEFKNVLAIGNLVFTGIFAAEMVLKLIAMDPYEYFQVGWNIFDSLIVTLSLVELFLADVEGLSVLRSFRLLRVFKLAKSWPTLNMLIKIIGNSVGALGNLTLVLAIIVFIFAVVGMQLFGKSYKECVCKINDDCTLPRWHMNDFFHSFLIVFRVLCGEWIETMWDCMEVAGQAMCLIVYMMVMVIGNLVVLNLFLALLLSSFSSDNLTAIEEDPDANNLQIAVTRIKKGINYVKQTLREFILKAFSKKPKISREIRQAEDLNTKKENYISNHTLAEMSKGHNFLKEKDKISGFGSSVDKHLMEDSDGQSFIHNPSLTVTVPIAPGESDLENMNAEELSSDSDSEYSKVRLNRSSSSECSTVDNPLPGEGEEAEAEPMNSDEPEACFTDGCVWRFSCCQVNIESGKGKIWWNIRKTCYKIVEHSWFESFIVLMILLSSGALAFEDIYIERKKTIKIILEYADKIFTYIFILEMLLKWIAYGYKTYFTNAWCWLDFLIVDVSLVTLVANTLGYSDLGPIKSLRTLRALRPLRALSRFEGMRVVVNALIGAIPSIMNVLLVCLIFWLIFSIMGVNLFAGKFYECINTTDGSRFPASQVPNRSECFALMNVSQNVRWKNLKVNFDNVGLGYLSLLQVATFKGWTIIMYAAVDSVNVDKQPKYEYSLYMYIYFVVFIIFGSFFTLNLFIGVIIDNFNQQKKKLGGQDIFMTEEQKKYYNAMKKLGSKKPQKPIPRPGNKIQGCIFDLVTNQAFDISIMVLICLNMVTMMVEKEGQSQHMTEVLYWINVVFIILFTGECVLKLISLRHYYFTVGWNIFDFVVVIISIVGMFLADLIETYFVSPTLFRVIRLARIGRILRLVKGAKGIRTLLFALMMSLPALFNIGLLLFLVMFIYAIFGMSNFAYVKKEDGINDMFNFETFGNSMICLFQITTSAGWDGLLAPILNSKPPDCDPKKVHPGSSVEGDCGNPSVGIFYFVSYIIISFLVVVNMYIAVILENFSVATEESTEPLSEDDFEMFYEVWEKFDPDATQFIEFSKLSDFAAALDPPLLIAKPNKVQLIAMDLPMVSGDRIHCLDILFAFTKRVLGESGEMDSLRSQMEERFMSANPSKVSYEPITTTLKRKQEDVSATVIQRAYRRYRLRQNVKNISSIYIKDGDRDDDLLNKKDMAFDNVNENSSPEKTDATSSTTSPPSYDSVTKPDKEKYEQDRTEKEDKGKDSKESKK

`N#Cc1cc(S(=O)(=O)Nc2nccs2)ccc1Oc1ccc(-c2ccnc(F)c2)nc1-c1ccoc1` [Example 112, 3-cyano-4-((2′-fluoro-6-(furan-3-yl)-[2,4′-bipyridin]-5-yl)oxy)-N-(thiazol-2-yl)benzenesulfonamide]: the IC50 lay in the range of 51 to 100 nM.

`N#Cc1cc(S(=O)(=O)Nc2nccs2)ccc1Oc1ccc(-c2ccsc2)nc1-c1ccoc1` [Example 113, 3-cyano-4-((2-(furan-3-yl)-6-(thiophen-3-yl)pyridin-3-yl)oxy)-N-(thiazol-2-yl)benzenesulfonamide] gave an IC50 of over 100 nM.

As to `N#Cc1cc(S(=O)(=O)Nc2nccs2)ccc1Oc1ccc(-c2ccoc2)nc1-c1ccoc1` [Example 114, 3-cyano-4-((2,6-di(furan-3-yl)pyridin-3-yl)oxy)-N-(thiazol-2-yl)benzenesulfonamide], the IC50 is over 100 nM.

Turning to `Cn1nccc1-c1nc(-c2ccc(F)nc2)ccc1Oc1ccc(S(=O)(=O)Nc2nccs2)cc1C#N` [Example 115, 3-cyano-4-((6′-fluoro-6-(1-methyl-1H-pyrazol-5-yl)-[2,3′-bipyridin]-5-yl)oxy)-N-(thiazol-2-yl)benzenesulfonamide], the IC50 was over 100 nM.

In turn, `Cn1nccc1-c1nc(-c2cccnc2F)ccc1Oc1ccc(S(=O)(=O)Nc2nccs2)cc1C#N` [Example 116, 3-cyano-4-((2′-fluoro-6-(1-methyl-1H-pyrazol-5-yl)-[2,3′-bipyridin]-5-yl)oxy)-N-(thiazol-2-yl)benzenesulfonamide] registered an IC50 of over 100 nM.

The compound `Cn1nccc1-c1nc(-c2cccc(F)c2)ccc1Oc1ccc(S(=O)(=O)Nc2nccs2)cc1C#N` [Example 117, 3-cyano-4-((6-(3-fluorophenyl)-2-(1-methyl-1H-pyrazol-5-yl)pyridin-3-yl)oxy)-N-(thiazol-2-yl)benzenesulfonamide] came in with an IC50 of 51 to 100 nM.

Compound `Cn1nccc1-c1nc(-c2ccccc2F)ccc1Oc1ccc(S(=O)(=O)Nc2nccs2)cc1C#N` [Example 118, 3-cyano-4-((6-(2-fluorophenyl)-2-(1-methyl-1H-pyrazol-5-yl)pyridin-3-yl)oxy)-N-(thiazol-2-yl)benzenesulfonamide] had an IC50 of over 100 nM.

`Cn1nccc1-c1nc(-c2ccsc2)ccc1Oc1ccc(S(=O)(=O)Nc2nccs2)cc1C#N` [Example 119, 3-cyano-4-((2-(1-methyl-1H-pyrazol-5-yl)-6-(thiophen-3-yl)pyridin-3-yl)oxy)-N-(thiazol-2-yl)benzenesulfonamide] had an IC50 of 51 to 100 nM.

`Cn1cc(-c2ccc(Oc3ccc(S(=O)(=O)Nc4nccs4)cc3C#N)c(-c3ccnn3C)n2)cn1` [Example 120, 3-cyano-4-((6-(1-methyl-1H-pyrazol-4-yl)-2-(1-methyl-1H-pyrazol-5-yl)pyridin-3-yl)oxy)-N-(thiazol-2-yl)benzenesulfonamide]: the IC50 was over 100 nM.

On to `Cn1nccc1-c1nc(-c2cnoc2)ccc1Oc1ccc(S(=O)(=O)Nc2nccs2)cc1C#N` [Example 121, 3-cyano-4-((6-(isoxazol-4-yl)-2-(1-methyl-1H-pyrazol-5-yl)pyridin-3-yl)oxy)-N-(thiazol-2-yl)benzenesulfonamide], for which the IC50 was over 100 nM.

For the compound `Cn1cc(-c2nc(-c3cccc(F)c3)ccc2Oc2ccc(S(=O)(=O)Nc3nccs3)cc2C#N)cn1` [Example 122, 3-cyano-4-((6-(3-fluorophenyl)-2-(1-methyl-1H-pyrazol-4-yl)pyridin-3-yl)oxy)-N-(thiazol-2-yl)benzenesulfonamide], the IC50 was 51 to 100 nM.

Consider `Cn1cc(-c2nc(-c3cccnc3F)ccc2Oc2ccc(S(=O)(=O)Nc3nccs3)cc2C#N)cn1` [Example 123, 3-cyano-4-((2′-fluoro-6-(1-methyl-1H-pyrazol-4-yl)-[2,3′-bipyridin]-5-yl)oxy)-N-(thiazol-2-yl)benzenesulfonamide], for which the IC50 was over 100 nM.

`Cn1cc(-c2nc(-c3ccc(F)nc3)ccc2Oc2ccc(S(=O)(=O)Nc3nccs3)cc2C#N)cn1` [Example 124, 3-cyano-4-((6′-fluoro-6-(1-methyl-1H-pyrazol-4-yl)-[2,3′-bipyridin]-5-yl)oxy)-N-(thiazol-2-yl)benzenesulfonamide] displayed an IC50 of over 100 nM.

`Cn1cc(-c2nc(-c3ccnc(F)c3)ccc2Oc2ccc(S(=O)(=O)Nc3nccs3)cc2C#N)cn1` [Example 125, 3-cyano-4-((2′-fluoro-6-(1-methyl-1H-pyrazol-4-yl)-[2,4′-bipyridin]-5-yl)oxy)-N-(thiazol-2-yl)benzenesulfonamide] registered an IC50 of over 100 nM.

`Cn1cc(-c2nc(-c3ccc(F)nc3F)ccc2Oc2ccc(S(=O)(=O)Nc3nccs3)cc2C#N)cn1` [Example 126, 3-cyano-4-((2′,6′-difluoro-6-(1-methyl-1H-pyrazol-4-yl)-[2,3′-bipyridin]-5-yl)oxy)-N-(thiazol-2-yl)benzenesulfonamide] gave an IC50 of over 100 nM.

For the compound `N#Cc1cc(S(=O)(=O)Nc2nccs2)ccc1Oc1ccc(-c2ccc(F)nc2F)nc1-c1ccoc1` [Example 127, 3-cyano-4-((2′,6′-difluoro-6-(furan-3-yl)-[2,3′-bipyridin]-5-yl)oxy)-N-(thiazol-2-yl)benzenesulfonamide], the half-maximal inhibitory concentration (IC50) lay in the range of 51 to 100 nM.

The compound `Cn1nccc1-c1nc(-c2ccc(F)nc2F)ccc1Oc1ccc(S(=O)(=O)Nc2nccs2)cc1C#N` [Example 128, 3-cyano-4-((2′,6′-difluoro-6-(1-methyl-1H-pyrazol-5-yl)-[2,3′-bipyridin]-5-yl)oxy)-N-(thiazol-2-yl)benzenesulfonamide] returned an IC50 of over 100 nM.

`O=S(=O)(Nc1cscn1)c1cc(Cl)c(Oc2ccc(-c3ccc(F)nc3F)nc2-c2ccoc2)cc1F` [Example 129, 5-chloro-4-((2′,6′-difluoro-6-(furan-3-yl)-[2,3′-bipyridin]-5-yl)oxy)-2-fluoro-N-(thiazol-4-yl)benzenesulfonamide]: the IC50 was over 100 nM.

As for `O=S(=O)(Nc1cscn1)c1cc(Cl)c(Oc2ccc(-c3ccc(F)nc3)nc2-c2ccoc2)cc1F` [Example 130, 5-chloro-2-fluoro-4-((6′-fluoro-6-(furan-3-yl)-[2,3′-bipyridin]-5-yl)oxy)-N-(thiazol-4-yl)benzenesulfonamide], the IC50 is over 100 nM.

`O=S(=O)(Nc1cscn1)c1cc(Cl)c(Oc2ccc(-c3ccc(F)cc3)nc2-c2ccoc2)cc1F` [Example 131, 5-chloro-2-fluoro-4-((6-(4-fluorophenyl)-2-(furan-3-yl)pyridin-3-yl)oxy)-N-(thiazol-4-yl)benzenesulfonamide]: the IC50 lay within 51 to 100 nM.

`O=S(=O)(Nc1cscn1)c1cc(Cl)c(Oc2ccc(-c3ccnc(F)c3)nc2-c2ccoc2)cc1F` [Example 132, 5-chloro-2-fluoro-4-((2′-fluoro-6-(furan-3-yl)-[2,4′-bipyridin]-5-yl)oxy)-N-(thiazol-4-yl)benzenesulfonamide] registered an IC50 of over 100 nM.

`O=S(=O)(Nc1cscn1)c1cc(Cl)c(Oc2ccc(-c3ccccc3F)nc2-c2ccoc2)cc1F` [Example 133, 5-chloro-2-fluoro-4-((6-(2-fluorophenyl)-2-(furan-3-yl)pyridin-3-yl)oxy)-N-(thiazol-4-yl)benzenesulfonamide] displayed an IC50 of over 100 nM.

Compound `Cn1nccc1-c1nc(-c2ccc(F)nc2F)ccc1Oc1cc(F)c(S(=O)(=O)Nc2cscn2)cc1Cl` [Example 134, 5-chloro-4-((2′,6′-difluoro-6-(1-methyl-1H-pyrazol-5-yl)-[2,3′-bipyridin]-5-yl)oxy)-2-fluoro-N-(thiazol-4-yl)benzenesulfonamide] had an IC50 of over 100 nM.

Take `Cn1nccc1-c1nc(-c2ccc(F)cc2)ccc1Oc1cc(F)c(S(=O)(=O)Nc2cscn2)cc1Cl` [Example 135, 5-chloro-2-fluoro-4-((6-(4-fluorophenyl)-2-(1-methyl-1H-pyrazol-5-yl)pyridin-3-yl)oxy)-N-(thiazol-4-yl)benzenesulfonamide]: the IC50 is over 100 nM.

Turning to `Cn1nccc1-c1nc(-c2ccccc2F)ccc1Oc1cc(F)c(S(=O)(=O)Nc2cscn2)cc1Cl` [Example 136, 5-chloro-2-fluoro-4-((6-(2-fluorophenyl)-2-(1-methyl-1H-pyrazol-5-yl)pyridin-3-yl)oxy)-N-(thiazol-4-yl)benzenesulfonamide], the IC50 was over 100 nM.

Consider `Cn1nccc1-c1nc(-c2ccc(F)nc2)ccc1Oc1cc(F)c(S(=O)(=O)Nc2cscn2)cc1Cl` [Example 137, 5-chloro-2-fluoro-4-((6′-fluoro-6-(1-methyl-1H-pyrazol-5-yl)-[2,3′-bipyridin]-5-yl)oxy)-N-(thiazol-4-yl)benzenesulfonamide], for which the IC50 is over 100 nM.

`Cn1nccc1-c1cc(Cl)ccc1C(O)c1ccc(S(=O)(=O)Nc2nccs2)cc1` (centres unmarked) [Example 138, 4-((4-chloro-2-(1-methyl-1H-pyrazol-5-yl)phenyl)(hydroxy)methyl)-N-(thiazol-2-yl)benzenesulfonamide] came in with an IC50 of over 100 nM.

As to `O=S(=O)(Nc1nccs1)c1ccc(C(O)c2ccc(Cl)cc2-c2cn[nH]c2)c(F)c1` (centres unmarked) [Example 139, 4-((4-chloro-2-(1H-pyrazol-4-yl)phenyl)(hydroxy)methyl)-3-fluoro-N-(thiazol-2-yl)benzenesulfonamide], the IC50 is over 100 nM.

Compound `O=S(=O)(Nc1nccs1)c1ccc(C(O)c2ccc(Cl)cc2-c2ccoc2)c(F)c1` (centres unmarked) [Example 140, 4-((4-chloro-2-(furan-3-yl)phenyl)(hydroxy)methyl)-3-fluoro-N-(thiazol-2-yl)benzenesulfonamide] displayed an IC50 of over 100 nM.

In the case of `O=S(=O)(Nc1nccs1)c1ccc(C(O)c2ccc(-c3ccoc3)cc2-c2ccoc2)c(F)c1` (centres unmarked) [Example 141, 4-((2,4-di(furan-3-yl)phenyl)(hydroxy)methyl)-3-fluoro-N-(thiazol-2-yl)benzenesulfonamide], the IC50 is over 100 nM.

As to `Cn1nccc1-c1ccccc1C(O)c1ccc(S(=O)(=O)Nc2nccs2)cc1F` (centres unmarked) [Example 142, 3-fluoro-4-(hydroxy(2-(1-methyl-1H-pyrazol-5-yl)phenyl)methyl)-N-(thiazol-2-yl)benzenesulfonamide], the IC50 is over 100 nM.

`O=S(=O)(Nc1nccs1)c1ccc(C(O)c2ccc(Cl)cc2-c2ccoc2)cc1` (centres unmarked) [Example 143, 4-((4-chloro-2-(furan-3-yl)phenyl)(hydroxy)methyl)-N-(thiazol-2-yl)benzenesulfonamide] showed an IC50 of under 50 nM.
